Laboratory results from patent publication US20060069132A1, “Azolecarboxamide herbicides” (priority 2004, published 2006).

Experiments:
barnyardgrass = test: Test B pre-/postemergence herbicide test; assay type: in vivo, Echinochloa crus-galli; conditions: for Plant response rating, Barnyardgrass: preemergence; for Barnyardgrass plant response rating: postemergence, visual rating, scale 0 (no effect) to 100 (complete control)
Summary of the method: (§1)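 Pre: seeds sown, then sprayed. Post: 1–4-leaf plants (2–18 cm) sprayed at the same time. Paddy: flooded, treated at 2-leaf stage. Formulation: non-phytotoxic solvent with surfactant. Greenhouse 13–15 days; visual 0–100 score relative to controls.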

Surinam grass = test: Test B pre-/postemergence herbicide test; assay type: in vivo, Urochloa decumbens; conditions: for Plant response rating, Surinam Grass: preemergence; for Surinam Grass plant response rating: postemergence, visual rating, scale 0 (no effect) to 100 (complete control)
Summary of the method: (§2)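 Seeds were planted and treated preemergence with compounds formulated in a non-phytotoxic solvent mixture containing surfactant, while plants at the 1- to 4-leaf stage (2 to 18 cm) received postemergence sprays. Flooded paddy plants were grown to the 2-leaf stage. After 13 to 15 days in a greenhouse, injury was visually rated 0–100 against untreated controls.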

cocklebur = test: Test B pre-/postemergence herbicide test; assay type: in vivo, Xanthium strumarium; conditions: for Plant response rating, Cocklebur: preemergence; for Cocklebur plant response rating: postemergence, visual rating, scale 0 (no effect) to 100 (complete control)
Summary of the method: as §1

corn = test: Test B pre-/postemergence herbicide test; assay type: in vivo, Zea mays; conditions: for Plant response rating, Corn: preemergence; for Corn plant response rating: postemergence, visual rating, scale 0 (no effect) to 100 (complete control)
Summary of the method: as §2

large crabgrass = test: Test B pre-/postemergence herbicide test; assay type: in vivo, Digitaria sanguinalis; conditions: for Plant response rating, Crabgrass, Large: preemergence; for Crabgrass, Large plant response rating: postemergence, visual rating, scale 0 (no effect) to 100 (complete control)
Summary of the method: as §2

giant foxtail = test: Test B pre-/postemergence herbicide test; assay type: in vivo, Setaria faberi; conditions: for Plant response rating, Foxtail, Giant: preemergence; for Foxtail, Giant plant response rating: postemergence, visual rating, scale 0 (no effect) to 100 (complete control)
Summary of the method: as §2

lambsquarters = test: Test B pre-/postemergence herbicide test; assay type: in vivo, Chenopodium album; conditions: for Plant response rating, Lambsquarters: preemergence; for Lambsquarters plant response rating: postemergence, visual rating, scale 0 (no effect) to 100 (complete control)
Summary of the method: as §2

morningglory = test: Test B pre-/postemergence herbicide test; assay type: in vivo, Ipomoea coccinea; conditions: for Plant response rating, Morningglory: preemergence; for Morningglory plant response rating: postemergence, visual rating, scale 0 (no effect) to 100 (complete control)
Summary of the method: as §1

pigweed = test: Test B pre-/postemergence herbicide test; assay type: in vivo, Amaranthus retroflexus; conditions: for Plant response rating, Pigweed: preemergence; for Pigweed plant response rating: postemergence, visual rating, scale 0 (no effect) to 100 (complete control)
Summary of the method: as §2

velvetleaf = test: Test B pre-/postemergence herbicide test; assay type: in vivo, Abutilon theophrasti; conditions: for Plant response rating, Velvetleaf: preemergence; for Velvetleaf plant response rating: postemergence, visual rating, scale 0 (no effect) to 100 (complete control)
Summary of the method: as §2

blackgrass = test: Test B postemergence herbicide test; assay type: in vivo, Alopecurus myosuroides; conditions: postemergence, visual rating, scale 0 (no effect) to 100 (complete control)
Summary of the method: (§3)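 Read-out: visual comparison with controls, scored 0 to 100, where 100 means complete control and 0 no effect. Formulated chemicals were applied postemergence to plants 2–18 cm tall (1- to 4-leaf), or to flooded-paddy plants at the 2-leaf stage, then held 13 to 15 days under glass.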

wild oat = test: Test B postemergence herbicide test; assay type: in vivo, Avena fatua; conditions: postemergence, visual rating, scale 0 (no effect) to 100 (complete control)
Summary of the method: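 Scale 0–100: zero equals no visible effect, 100 complete control, judged by eye relative to controls. Timing: 13 to 15 days in greenhouse post-treatment. Growth stage at spraying: two leaves (paddy) or one to four leaves, 2–18 cm (postemergence).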

rice = test: Test B flooded paddy test; assay type: in vivo, Oryza sativa; conditions: 1000 g ai/ha, visual rating, scale 0 to 100 (0 no effect, 100 complete control), 13 to 15 days
Summary of the method: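 Visual ratings, 0 (no effect) to 100 (complete control), made versus controls after 13–15 d greenhouse. Paddy plants treated at 2-leaf stage; postemergence plants at 1- to 4-leaf stage, 2–18 cm tall.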

[1] = test system: small flower umbrella sedge; test: Test B flooded paddy test; assay type: in vivo, Cyperus difformis; conditions: 1000 g ai/ha, visual rating, scale 0 to 100 (0 no effect, 100 complete control), 13 to 15 days
Summary of the method: as §3

ducksalad = test: Test B flooded paddy test; assay type: in vivo, Heteranthera limosa; conditions: 1000 g ai/ha, visual rating, scale 0 to 100 (0 no effect, 100 complete control), 13 to 15 days
Summary of the method: as §3

[2] = 500 g ai/ha, visual rating 0-100, 0 no effect, 100 complete control
[3] = 125 g ai/ha, 0 to 100 scale, 0 is no effect, 100 is complete control

## CC(=O)c1cccc(NC(=O)c2cc(C(C)(C)C)nn2CCF)c1 [Compound 128]
barnyardgrass; [2]
  Plant response rating, Barnyardgrass: 90
barnyardgrass; 125 g ai/ha
  Barnyardgrass plant response rating: 20
barnyardgrass; 500 g ai/ha
  Barnyardgrass plant response rating: 30
barnyardgrass; [3]
  Plant response rating, Barnyardgrass: 80
Surinam grass; [2]
  Plant response rating, Surinam Grass: 60
Surinam grass; 125 g ai/ha
  Surinam Grass plant response rating: 10
Surinam grass; 500 g ai/ha
  Surinam Grass plant response rating: 20
Surinam grass; [3]
  Plant response rating, Surinam Grass: 40
cocklebur; [2]
  Plant response rating, Cocklebur: 20
cocklebur; 125 g ai/ha
  Cocklebur plant response rating: 90
cocklebur; 500 g ai/ha
  Cocklebur plant response rating: 100
cocklebur; [3]
  Plant response rating, Cocklebur: 20
corn; [2]
  Plant response rating, Corn: 20
corn; [3]
  Plant response rating, Corn: 0
Large crabgrass; [2]
  Plant response rating, Crabgrass, Large: 100
Large crabgrass; 125 g ai/ha
  Crabgrass, Large plant response rating: 20
Large crabgrass; 500 g ai/ha
  Crabgrass, Large plant response rating: 20
Large crabgrass; [3]
  Plant response rating, Crabgrass, Large: 90
Giant foxtail; [2]
  Plant response rating, Foxtail, Giant: 60
Giant foxtail; 125 g ai/ha
  Foxtail, Giant plant response rating: 20
Giant foxtail; 500 g ai/ha
  Foxtail, Giant plant response rating: 20
Giant foxtail; [3]
  Plant response rating, Foxtail, Giant: 40
lambsquarters; [2]
  Plant response rating, Lambsquarters: 70
lambsquarters; 125 g ai/ha
  Lambsquarters plant response rating: 0
lambsquarters; 500 g ai/ha
  Lambsquarters plant response rating: 60
lambsquarters; [3]
  Plant response rating, Lambsquarters: 0
morningglory; [2]
  Plant response rating, Morningglory: 30
morningglory; [3]
  Plant response rating, Morningglory: 20
pigweed; [2]
  Plant response rating, Pigweed: 80
pigweed; 125 g ai/ha
  Pigweed plant response rating: 20
pigweed; 500 g ai/ha
  Pigweed plant response rating: 60
pigweed; [3]
  Plant response rating, Pigweed: 50
velvetleaf; [2]
  Plant response rating, Velvetleaf: 80
velvetleaf; 125 g ai/ha
  Velvetleaf plant response rating: 50
velvetleaf; 500 g ai/ha
  Velvetleaf plant response rating: 60
velvetleaf; [3]
  Plant response rating, Velvetleaf: 70
blackgrass; 125 g ai/ha
  Blackgrass plant response rating: 10
blackgrass; 500 g ai/ha
  Blackgrass plant response rating: 10
Wild oat; 125 g ai/ha
  Oat, Wild plant response rating: 10
Wild oat; 500 g ai/ha
  Oat, Wild plant response rating: 10
rice
  Rice plant response rating: 60
[1]
  Sedge, Umbrella plant response rating: 90
ducksalad
  Ducksalad plant response rating: 90

## CCOc1cccc(NC(=O)c2cc(C(C)(C)C)nn2CC)c1 [Compound 136]
barnyardgrass; [2]
  Plant response rating, Barnyardgrass: 100
barnyardgrass; 125 g ai/ha
  Barnyardgrass plant response rating: 50
barnyardgrass; 500 g ai/ha
  Barnyardgrass plant response rating: 90
barnyardgrass; [3]
  Plant response rating, Barnyardgrass: 90
Surinam grass; [2]
  Plant response rating, Surinam Grass: 90
Surinam grass; 125 g ai/ha
  Surinam Grass plant response rating: 20
Surinam grass; 500 g ai/ha
  Surinam Grass plant response rating: 70
Surinam grass; [3]
  Plant response rating, Surinam Grass: 40
cocklebur; [2]
  Plant response rating, Cocklebur: 10
cocklebur; 125 g ai/ha
  Cocklebur plant response rating: 100
cocklebur; 500 g ai/ha
  Cocklebur plant response rating: 100
cocklebur; [3]
  Plant response rating, Cocklebur: 0
corn; [2]
  Plant response rating, Corn: 30
corn; 125 g ai/ha
  Corn plant response rating: 10
corn; 500 g ai/ha
  Corn plant response rating: 30
corn; [3]
  Plant response rating, Corn: 10
Large crabgrass; [2]
  Plant response rating, Crabgrass, Large: 100
Large crabgrass; 125 g ai/ha
  Crabgrass, Large plant response rating: 10
Large crabgrass; 500 g ai/ha
  Crabgrass, Large plant response rating: 70
Large crabgrass; [3]
  Plant response rating, Crabgrass, Large: 100
Giant foxtail; [2]
  Plant response rating, Foxtail, Giant: 100
Giant foxtail; 125 g ai/ha
  Foxtail, Giant plant response rating: 10
Giant foxtail; 500 g ai/ha
  Foxtail, Giant plant response rating: 10
Giant foxtail; [3]
  Plant response rating, Foxtail, Giant: 80
lambsquarters; [2]
  Plant response rating, Lambsquarters: 100
lambsquarters; 125 g ai/ha
  Lambsquarters plant response rating: 100
lambsquarters; 500 g ai/ha
  Lambsquarters plant response rating: 100
lambsquarters; [3]
  Plant response rating, Lambsquarters: 100
morningglory; [2]
  Plant response rating, Morningglory: 70
morningglory; 125 g ai/ha
  Morningglory plant response rating: 20
morningglory; 500 g ai/ha
  Morningglory plant response rating: 100
morningglory; [3]
  Plant response rating, Morningglory: 50
pigweed; [2]
  Plant response rating, Pigweed: 100
pigweed; 125 g ai/ha
  Pigweed plant response rating: 60
pigweed; 500 g ai/ha
  Pigweed plant response rating: 90
pigweed; [3]
  Plant response rating, Pigweed: 100
velvetleaf; [2]
  Plant response rating, Velvetleaf: 100
velvetleaf; 125 g ai/ha
  Velvetleaf plant response rating: 60
velvetleaf; 500 g ai/ha
  Velvetleaf plant response rating: 70
velvetleaf; [3]
  Plant response rating, Velvetleaf: 50
blackgrass; 125 g ai/ha
  Blackgrass plant response rating: 30
blackgrass; 500 g ai/ha
  Blackgrass plant response rating: 60
Wild oat; 125 g ai/ha
  Oat, Wild plant response rating: 50
Wild oat; 500 g ai/ha
  Oat, Wild plant response rating: 60
rice
  Rice plant response rating: 30
[1]
  Sedge, Umbrella plant response rating: 90
ducksalad
  Ducksalad plant response rating: 90
